From article PMC10650955, “α-Aminophosphonate inhibitors of metallo-β-lactamases NDM-1 and VIM-2” (RSC Medicinal Chemistry, 2023)
Counter-ions that a name gives are not always drawn.

Columns and labels:
VIM-2 = target: T1, VIM-2 (Escherichia coli, UniProt Q5U7L7); assay: Dose rate inhibition studies for IC50 determination, VIM-2 enzymatic assay; type: biochemical; settings: inhibitor 0-800 μM, 3 parallel measurements, N.I. = no enzyme inhibitory activity observed; for IC50: Enzyme IC50 VIM-2, 0.1 nM VIM-2, 100 μM ZnCl2, nitrocefin substrate; for Enzyme IC50 VIM-2: 0.1 nM VIM-2, 100 μM ZnCl2, nitrocefin substrate
T1 construct: made in house
Experimental: (§1) The […] synthesized compounds 5a–l were tested for their inhibitory activities against NDM-1, VIM-2 (Table 1), and GIM-1 in an in vitro enzymatic assay (ESI ^†).[41] The inhibitory activity was measured using enzyme concentrations of 0.1 nM VIM-2, 10 nM NDM-1 or 1 nM GIM-1, with an excess Zn(II) (100 μM, see Experimental methods), with inhibitor compounds with concentrations from 0 to 800 μM. Each data point was measured in triplicates. […] This is in line with previous reports.[42,43]
(§2) A 100 μl solution with buffer (50 mM HEPES (pH 7.2), 100 μM ZnCl2, 2.5% DMSO), purified enzyme (0.1 nM VIM-2, 10 nM NDM-1 or 1 nM GIM-1) and 800–0 μM inhibitor was incubated in a 96 well plate at 25 °C for 5 min. In addition, the enzyme buffer contained 400 μg ml^−1 bovine serum albumin (BSA) to prevent protein unfolding and loss of activity due to low concentrations.[67,68] 100 μM of the reporter substrate nitrocefin (VIM-2, GIM-1) or imipenem (NDM-1) was added to the enzyme–inhibitor solution and the increase in absorbance at 482 nm (nitrocefin) or 300 nm (imipenem) was recorded on a Spectramax M4 spectrophotometer (Molecular Devices). Each data point was performed in triplicates and the initial velocity for each inhibitor concentration was analyzed by a log [inhibitor] vs. response curve fitting to calculate IC50 in GraphPad Prism 9.2 software.

NDM-1 = target: T2, NDM-1 (Klebsiella pneumoniae, UniProt C7C422); assay: Dose rate inhibition studies for IC50 determination, NDM-1 enzymatic assay; type: biochemical; settings: inhibitor 0-800 μM, 3 parallel measurements, N.I. = no enzyme inhibitory activity observed; for Enzyme IC50 NDM-1: 10 nM NDM-1, 100 μM ZnCl2, imipenem substrate; for IC50: Enzyme IC50 NDM-1, 10 nM NDM-1, 100 μM ZnCl2, imipenem substrate
T2 construct: made in house
T2 sequence (C7C422 29-270 limits assumed): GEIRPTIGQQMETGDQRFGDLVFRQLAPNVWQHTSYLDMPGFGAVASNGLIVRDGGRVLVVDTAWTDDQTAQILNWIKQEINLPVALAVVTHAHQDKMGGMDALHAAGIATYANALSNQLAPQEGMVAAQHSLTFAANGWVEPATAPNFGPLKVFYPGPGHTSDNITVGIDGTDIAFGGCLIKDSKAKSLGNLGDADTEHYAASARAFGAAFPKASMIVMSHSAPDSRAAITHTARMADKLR
Experimental: as §1, §2

15N-labelled VIM-2 = target: T3, 15N-labelled VIM-2 (Escherichia coli, UniProt Q5U7L7); assay: 1H,15N HSQC NMR chemical shift perturbation titration, VIM-2; type: binding; settings: VIM-2 Kd, 0-16 equiv. ligand, pH 7.0, 310 K
T3 construct: made in house
Experimental: Solution NMR spectroscopy is a powerful tool to assess protein–ligand interactions under close to physiological conditions.[47] We, therefore, performed NMR chemical shift perturbation (CSP, for details, see section S8, ESI ^†) experiments to identify the amino acid residues of NDM-1 and VIM-2 that are involved in inhibitor binding, making use of the previously published protein assignments.[48,49] Titrations were conducted using ^15N-labelled proteins with 0, 0.5, 1, 2, 4, 8, and 16 equiv. of 5 inhibitors for NDM-1 and of 7 inhibitors for VIM-2.
For the titrations, ^15N-labelled NDM-1 and ^15N-labelled VIM-2 (250 μM), and titrated ligands (0.5 equiv. in 1 μL) were prepared in the same buffer as the protein (20 mM KPO4, 0.1 mM ZnCl2, pH 7.0 with 10% D2O and 2.5% DMSO-d6). ^1H,^15N HSQC spectra were acquired with 128 × 1024 complex points (F1 × F2) and spectral width of 9090 × 2740 Hz on ^15N-labeled NDM-1/VIM-2 and with every titration step up to 1 : 16 ratio between protein : ligand (0, 0.5, 1, 2, 4, 8, and 16 equiv. of ligand). All experiments were recorded on a Bruker 600 MHz spectrometer at 310 K equipped with a 5 mm TCI cryogenic probe. The NMR data were processed on the MestReNova software with the Mnova Binding plugin. The weighted average chemical shift perturbations (CSP) for the backbone amides were calculated from the observed chemical shift differences in the proton and nitrogen dimensions using the equation (chemical shift scaling factors: FH = 1, FN = 0.156) CSP = Δδ1H,15N = [drawing 13] .
7. Chemical shift perturbation histograms
Chemical shift perturbation was calculated according equation (1) 2
CSP = Δδ(1H,15N) = √(Δδ1H2 + (1⁄R × Δδ15N2) Rscale = 6.5 (1)
Where Δδ1H is the chemical shift change for proton dimension, Δδ15N is the chemical shift change for nitrogen dimension, Rscale is a
The chemical shift perturbations (CSP) were classified as significant (SSP) when the observed Δδ(1H,15N) was greater than the population
mean plus the standard deviation (µ+1σ) – solid line; (µ+2σ) – dashed line, and (µ+3σ) – dashed line.
Further on, Kd was calculated according: 3
([P]+[L]+Kd)− √([P]+[L]+Kd)2−4[P][L]
ΔδmaxΔδobs = Δδmax 2[P] (2)
Where Kd is the dissociation constant, [P] and [L] are protein and ligand concentrations, respectively. Δδmax were estimated in
MestReNova by extrapolation of the obser ved chemical shift differences Δδobs.

Compound | IC50 (VIM-2) | Enzyme IC50 NDM-1 (NDM-1) | Kd (15N-labelled VIM-2) | Enzyme IC50 VIM-2 (VIM-2) | IC50 (NDM-1)
O=C(NC(C1CCCCN1)P(=O)(O)O)c1csc2c1CCCC2 (single isomer, unassigned) [Compound 5e-1, (Piperidin-2-yl(4,5,6,7-tetrahydrobenzo[b]thiophene-3-carboxamido)methyl)phosphonic acid hydrochloride] | 69.7 ± 26.2 µM |  |  |  | 
Cl.O=C(NC(C1CCCCN1)P(=O)(O)O)c1csc2c1CCCC2 (single isomer, unassigned) [Compound 5e-2, (Piperidin-2-yl(4,5,6,7-tetrahydrobenzo[b]thiophene-3-carboxamido)methyl)phosphonic acid hydrochloride] | 46.1 ± 15.6 µM | N.I. |  |  | 
Cl.O=C(NC(C1CCCCN1)P(=O)(O)O)c1scc2c1CCCC2 (single isomer, unassigned) [Compound 5f-1, (Piperidin-2-yl(4,5,6,7-tetrahydrobenzo[c]thiophene-1-carboxamido)methyl)phosphonic acid hydrochloride] | 37 ± 3 µM | N.I. |  |  | 
Cl.O=C(NC(C1CCCCN1)P(=O)(O)O)c1scc2c1CCCC2 (single isomer, unassigned) [Compound 5f-2, (Piperidin-2-yl(4,5,6,7-tetrahydrobenzo[c]thiophene-1-carboxamido)methyl)phosphonic acid hydrochloride] | 18.8 ± 0.5 µM | N.I. |  |  | 
Cl.O=C(Cc1cc2ccccc2s1)NC(C1CCCCN1)P(=O)(O)O (single isomer, unassigned) [Compound 5k-1, ((2-(Benzo[b]thiophen-2-yl)acetamido)(piperidin-2-yl)methyl)phosphonic acid hydrochloride] | 56.6 ± 1 µM | N.I. |  |  | 
O=C(Cc1cc2ccccc2s1)NC(C1CCCCN1)P(=O)(O)O (single isomer, unassigned) [Compound 5k-2, ((2-(Benzo[b]thiophen-2-yl)acetamido)(piperidin-2-yl)methyl)phosphonic acid hydrochloride] | 28.7 ± 10.1 µM |  |  |  | 
Cc1[nH]c(=S)sc1CC(=O)NC(C1CCCCN1)P(=O)(O)O (centres unmarked) [Compound 5a-1, ((2-(4-Methyl-2-thioxo-2,3-dihydrothiazol-5-yl)acet-amido)(piperidin-2-yl)methyl)phosphonic acid hydro-chloride] | 353 ± 62 µM | N.I. ^b | 900 ± 100 µM |  | 
Cc1[nH]c(=S)sc1CC(=O)NC(C1CCCCN1)P(=O)(O)O (centres unmarked) [Compound 5a-2, ((2-(4-Methyl-2-thioxo-2,3-dihydrothiazol-5-yl)acet-amido)(piperidin-2-yl)methyl)phosphonic acid hydro-chloride] |  | N.I. |  | N.I. | 
O=C(NC(C1CCCCN1)P(=O)(O)O)c1cccs1 (centres unmarked) [Compound 5b-2, (Piperidin-2-yl(thiophene-2-carboxamido)methyl)phos-phonic acid hydrochloride] | 7.2 ± 0.4 µM | N.I. | 1400 ± 100 µM |  | 
O=C(NC(C1CCCCN1)P(=O)(O)O)c1ccsc1 (centres unmarked) [Compound 5c-2, (Piperidin-2-yl(thiophene-3-carboxamido)methyl)phos-phonic acid hydrochloride] | 14.6 ± 2.3 µM | N.I. |  |  | 
Cl.O=C(NC(C1CCCCN1)P(=O)(O)O)c1cc2c(s1)CCCC2 (centres unmarked) [Compound 5d-1, (Piperidin-2-yl(4,5,6,7-tetrahydrobenzo[b]thiophene-2-carboxamido)methyl)phosphonic acid hydrochloride] | 244 ± 35 µM | N.I. |  |  | 
Cl.O=C(NC(C1CCCCN1)P(=O)(O)O)c1cc2c(s1)CCCC2 (centres unmarked) [Compound 5d-2, (Piperidin-2-yl(4,5,6,7-tetrahydrobenzo[b]thiophene-2-carboxamido)methyl)phosphonic acid hydrochloride] | 4.5 ± 0.8 µM | N.I. |  |  | 
O=C(NC(C1CCCCN1)P(=O)(O)O)c1cc2ccccc2s1 (centres unmarked) [Compound 5g-1, ((Benzo[b]thiophene-2-carboxamido)(piperidin-2-yl)methyl)phosphonic acid hydrochloride] | 45 ± 5 µM |  |  |  | 46.7 ± 9.7 µM
O=C(NC(C1CCCCN1)P(=O)(O)O)c1cc2ccccc2s1 (centres unmarked) [Compound 5g-2, ((Benzo[b]thiophene-2-carboxamido)(piperidin-2-yl)methyl)phosphonic acid hydrochloride] | 4.1 ± 2.1 µM |  |  |  | 46.8 ± 5.5 µM
O=C(NC(C1CCCCN1)P(=O)(O)O)c1csc2ccccc12 (centres unmarked) [Compound 5h-1, ((Benzo[b]thiophene-3-carboxamido)(piperidin-2-yl)met-hyl)phosphonic acid hydrochloride] | 40.6 ± 3.9 µM | N.I. |  |  | 
O=C(NC(C1CCCCN1)P(=O)(O)O)c1csc2ccccc12 (centres unmarked) [Compound 5h-2, ((Benzo[b]thiophene-3-carboxamido)(piperidin-2-yl)met-hyl)phosphonic acid hydrochloride] | 11.6 ± 4.7 µM | N.I. |  |  | 
O=C(Cc1ccsc1)NC(C1CCCCN1)P(=O)(O)O (centres unmarked) [Compound 5j-2, (Piperidin-2-yl(2-(thiophen-3-yl)acetamido)methyl)phos-phonic acid hydrochloride] |  | N.I. |  | N.I. | 
Cl.O=C(Cc1csc2ccccc12)NC(C1CCCCN1)P(=O)(O)O (centres unmarked) [Compound 5l-1, ((2-(Benzo[b]thiophen-3-yl)acetamido)(piperidin-2-yl)methyl)phosphonic acid hydrochloride] |  |  |  | N.I. | 7.9 ± 1.6 µM
O=C(Cc1csc2ccccc12)NC(C1CCCCN1)P(=O)(O)O (centres unmarked) [Compound 5l-2, ((2-(Benzo[b]thiophen-3-yl)acetamido)(piperidin-2-yl)methyl)phosphonic acid hydrochloride] | 94.4 ± 5.8 µM |  |  |  | 27.8 ± 21 µM
